In patent US20210268070A1, “Use of Immunomodulators to Control Infection and Stimulate Healing in Normal and Diabetic Wounds” (priority 2018, published 2021):

Assays:
P. aeruginosa PA103 [1] = experiment: Implant model of infection with PA103; format: in vivo; conditions: prophylaxis tobramycin 3.5 mg/kg i.p. 1 h before implantation and infection, FIG. 2A
Procedure: (§1) The implant model of infection in C57B mice was used for 10^6 PA103 (FIG. 2A) or 10^6 USA300 MRSA (FIG. 2C). The wound model of infection was used for 10^6 PA103 in C57BL mice (FIG. 2B) or diabetic db/db mice (FIG. 2D). Infection was carried out at the time of surgery by adding bacteria directly to the surgical sites. Immunomodulators, namely, LPS (10 ng or 100 ng), fMLP (10 ng or 100 ng), CCL3 (1 μg) were added topically at the surgical sites at the time of surgery & infection. GM-CSF (10 μg/kg), tobramycin (Tob at 3.5 mg/kg), and vancomycin (40 mg/kg) were added systemically by i.p. injection 1 h before surgical implantation and infection. Infection levels were determined 24 h following infection (N>4 animals/group; NS=not significant, * p<0.01, ** p<0.001, ***p<0.0001 One-way ANOVA).
(§2) We assessed these immunomodulators for their ability to control wound and/or implant SS's in normal (C57BL/6) or diabetic (db/db) mice. We acknowledge that diabetic individuals are not as immunocompromised as other immunocompromised patient groups. […] All immunomodulators were added locally at the surgical sites at the time of infection, except GM-CSF (10 μg/kg) which was administered systemically by i.p. injection 1 h prior to surgery per its FDA-approved route of delivery. […] CCL3 and GM-CSF are also tested using the implant model of infection. Here, we tested CCL3 and GM-CSF in the wound model of infection in C57B mice.
(§3) Implant surgery and wound surgery and surgical site infection are performed according to the following method. On the day of surgery, all mice are anesthetized by an intraperitoneal injection of a ketamine/xylazine mixture (90 mg/kg ketamine+5 mg/kg xylazine for mice). The back of the animals is shaved using an electric shave and scrubbed with alcohol swabs 3 times, a topical antiseptic solution (Hibiclens; chlorhexidine gluconate) is applied to the skin. The surgical procedures are performed with sterile instruments, sterile surgical gloves, and aseptic techniques as follows. […]

P. aeruginosa PA103 [2] = experiment: Wound model of infection with PA103 in normal (C57BL) mice; format: in vivo
Procedure: as §1
(§4) (15A) C57BL/6 mice received 40 mg/kg prophylaxis (Sys) vancomycin (Vanc) or 3.5 mg/kg tobramycin (Tobra) by i.p. injection. (15A) 1 h after antibiotic administration, 106 CFU of USA300 was added to implant after insertion into facia (Implant Model). (15B) 1 h after antibiotic administration, 10^6CFU of USA300 or 106CFU PA103 (Pa) were added full-thickness wounds in of C57BL/6 (Wound Model). Infection levels at implant surgical site (Tissue & Implant) or a distant site (Spleen), or wound tissues were assessed 24 h following infection. (N>4 animals/group, * p<0.01, ***p<0.0001, One-way ANOVA).
as §2
Implant surgery and wound surgery and surgical site infection are performed according to the following method. On the day of surgery, all mice are anesthetized by an intraperitoneal injection of a ketamine/xylazine mixture (90 mg/kg ketamine+5 mg/kg xylazine for mice). The back of the animals is shaved using an electric shave and scrubbed with alcohol swabs 3 times, a topical antiseptic solution (Hibiclens; chlorhexidine gluconate) is applied to the skin. The surgical procedures are performed with sterile instruments, sterile surgical gloves, and aseptic techniques as follows. For wound surgical procedure, a sterile biopsy punch (5-7 mm diameter) is used to punch through the full thickness of the back skin below the shoulder blades. Four 5-7 mm skin wounds are made on the back of each mouse. Wounds placed in this area cannot be reached by the animals and therefore are protected from self-licking. For implant surgery, a 4-mm long lateral skin incision is made on the upper back, and the skin is retracted. The space above the muscle is opened using blunt dissection with fine forceps, to create a rostral fascia indentation. Then, immunomodulators at indicated concentrations (in a 20 μL volume) or PBS control are injected into the fascia indentation.

MRSA = experiment: Normal wound model of MRSA infection; format: in vivo; conditions: FIG. 6B
Procedure: as §2
as §3, with “follows. For wound surgical procedure, a sterile biopsy punch (5-7 mm diameter) is used to punch through the full thickness of the back skin below the shoulder blades.” for “follows.”

USA300 MRSA = experiment: Implant model of infection with USA300 MRSA; format: in vivo
Procedure: as §1, §4, §2
as §3, with “follows. For wound surgical procedure, a sterile biopsy punch (5-7 mm diameter) is used to punch through the full thickness of the back skin below the shoulder blades.” for “follows.”

leukocytes = experiment: Leukocyte migration (H&E staining) and activation (MPO ELISA) in normal wound; format: in vivo, C57B mice; conditions: compared to PBS, FIGS. 10A-10D
Description: FIGS. 10A-10D illustrate that immunomodulatory treatment enhances leukocyte migration and neutrophil activation in a normal wound. (10A, 10B—CCL3, 10C—LPS, fMLF, 10D—GM-CSF), N=4; Significance determined as compared to PBS *<0.05, **p<0.01, ***p<0.001.
We next examined the impact of CCL3 topical treatment on leukocyte migration by H&E staining, and on leukocyte activation by myeloperoxidase (MPO) measurements by ELISA. (MPO is primarily used as a marker for neutrophil activation but it can also be expressed to lesser extent in macrophages).

**Q.** With `NC[C@H]1O[C@H](O[C@H]2[C@H](O)[C@@H](O[C@H]3O[C@H](CO)[C@@H](O)[C@H](N)[C@H]3O)[C@H](N)C[C@@H]2N)[C@H](N)C[C@@H]1O` [tobramycin] as the compound, how does the “bacterial loads on implants as compared to implants treated with immunomodulators” value (P. aeruginosa PA103 [1]) read?
**A.** significantly higher

**Q.** What about the “infection levels in wound tissues after prophylaxis antibiotic” value (P. aeruginosa PA103 [2]; C57BL/6 mice, 3.5 mg/kg i.p. 1 h before 10^6 CFU PA103, 24 h following infection, FIG. 15B) of the same compound?
**A.** effective

**Q.** “IL-1β: pro-inflammatory cytokine interleukin-1 (SEQ ID NO: 11, precursor)” was tested. Which “infection control against P. aeruginosa PA103 in normal wounds” value (P. aeruginosa PA103 [2]; C57B mice, immunomodulator added locally at time of infection, compared to PBS, FIGS. 3A, 4A, 4B, 6A) did it give?
**A.** effective

**Q.** And the “controlling MRSA infection in normal wound model” value (MRSA)?
**A.** effective

**Q.** With `CN[C@H](CC(C)C)C(=O)N[C@H]1C(=O)N[C@@H](CC(N)=O)C(=O)N[C@H]2C(=O)N[C@H]3C(=O)N[C@H](C(=O)N[C@H](C(=O)O)c4cc(O)cc(O)c4-c4cc3ccc4O)[C@H](O)c3ccc(c(Cl)c3)Oc3cc2cc(c3O[C@@H]2O[C@H](CO)[C@@H](O)[C@H](O)[C@H]2O[C@H]2C[C@](C)(N)[C@H](O)[C@H](C)O2)Oc2ccc(cc2Cl)[C@H]1O` [vancomycin] as the compound, how does the “infection levels at implant surgical site (Tissue & Implant) or a distant site (Spleen)” value (USA300 MRSA; C57BL/6 mice, prophylaxis antibiotic i.p. 1 h before 10^6 CFU USA300, 24 h following infection, FIG. 15A) read?
**A.** effective

**Q.** And the “bacterial loads on implants as compared to implants treated with immunomodulators” value (USA300 MRSA; prophylaxis vancomycin 40 mg/kg i.p., FIG. 15A & 2C)?
**A.** significantly higher

**Q.** Which “PA103 infection in wounds as compared to PBS-treated wounds” value (P. aeruginosa PA103 [2]; C57BL mice, 10^6 PA103, systemic 10 μg/kg i.p. 1 h prior to surgery, 24 h, FIG. 2B) does the source give for “Granulocyte-macrophage colony-stimulating factor [GM-CSF]” here?
**A.** significantly reduce

**Q.** And the “reduction of PA103 infection in wounds, compared with CCL3 or tobramycin” value (P. aeruginosa PA103 [2]; systemic GM-CSF 10 μg/kg i.p., FIG. 2B)?
**A.** not as effective

**Q.** And the “leukocyte migration and neutrophil activation in a normal wound” value (leukocytes)?
**A.** enhances
